Test results from patent publication US9034876B2, “Treatment of chronic inflammation with a 1,2,4-triazolo [1,5a] pyridine derivative” (Cephalon, Inc., priority 2010, dated 2015).

Key:
[1] = biological target: human JAK2 (Homo sapiens, UniProt O60674); conditions: read-out: IC50, JAK2 kinase, isolated human enzyme; average±standard deviation of at least 4 determinations; 0.2 μM ATP
Description: IC50 values are reported as the average±standard deviation of at least 4 independent determinations.
The kinase activity of baculovirus-expressed human JAK kinases (JAK1, JAK2, JAK3 or TYK2) was measured using the time-resolved fluorescence (TRF) detection system as described elsewhere [17]. Each 96-well Costar high binding plate (Corning, Corning, N.Y.) was coated with 100 μl/well of 10 μg/ml neutravidin (Pierce Biotechnology, Rockford, Ill.) in TBS at 37° C. for 2 h, followed by 100 μl/well of 1 μg/ml 15-mer peptide substrate (biotinyl-amino-hexanoyl-[sequence]-amide, Infinity Biotech Research and Resource, Aston, Pa.) at 37° C. for 1 h. The kinase assay mixture (total volume=100 μl/well) consisting of 20 mM HEPES (pH 7.2), ATP (Km level for each kinase), 1 mM MnCl2, 0.1% BSA, and test Compound (diluted in DMSO; 2.5% DMSO final in assay) was added to the assay plate. The concentrations of ATP used were as follows: 0.2 μM ATP for JAK1, JAK2 and TYK2; 0.1 μM ATP for JAK3. Enzyme was added and the reaction was allowed to proceed for 20 min at RT. […] Plates were agitated for 10 min and the fluorescence of the resulting solution measured using the PerkinElmer EnVision® 2102 or 2104 multi-label plate reader. IC50 values were determined using the 4-parameter logistic model in XLFit® 4 (IDBS, Ltd., Guildford, UK).

[2] = system: collagen-induced arthritis (CIA); test: Collagen-induced arthritis (CIA) model, paw size and clinical score; assay type: in vivo, female DBA/1 mice
Description: Female DBA/1 mice were injected with purified collagen type II in CFA i.d. (intradermal), then boosted with collagen type II in IFA, s.c., (subcutaneous) on day 21 followed by a day 28 LPS injection i.p. to induce arthritis (CIA). Mice that scored a ‘1’ or better for each paw were considered arthritic and entered into the study. Treatments started after 7-10 days of arthritis induction. Compound A was provided orally, b.i.d., for all doses tested; Dex was administered i.p. at 1.5 mg/kg, three times a week; and vehicle (PEG400+1% DMSO) was provided orally, b.i.d.
Compound A was then tested in a more physiologic and progressive disease model of RA (i.e., collagen-induced arthritis (CIA) model). […] Early model optimization studies consistently generated robust collagen-induced-arthritis phenotypes that were absent from control treated, non-diseased, animals. CIA arthritic animals were separated into groups and treated with Compound A at 30, 55 and 100 mg/kg doses b.i.d, p.o.; vehicle or the standard-of-care reference drug, Dex at 1.5 mg/kg, which were administered as described above. […] The faster onset of swelling reduction noted for the 100 mg/kg treatment group may be explained by differences in the mechanism of action of Compound A.
Acclimated mice were randomized and pre-bled and measured for baseline inflammation before any studies were initiated. On day 0, DBA/1 female mice were given a primary immunization with equal volumes of bovine type II collagen (CII), 2 mg/ml stock in 0.05 M acetic acid, (Chrondrex, Redmond, Wash.) suspended in CFA, 5 mg/ml (Chondrex, Redmond, Wash.) emulsion yielding an injection of 100 μg of CII at 100 μl into the base of the tail intradermally (i.d.). At day 21 post primary immunization, mice were re-challenged with CII emulsified in Incomplete Freund's Adjuvant (IFA) (Thermo Scientific, Rockford, Ill.) s.c. on the flank of the mouse. On day 28 each mouse received an i.p. injection of E. coli 0111:B4 LPS (0.5 mg/ml stock) (Chondrex, Redmond, Wash.) at 10 μg in 100 μl of saline (25-50 μg of LPS was reduced to 10 μg per mouse to reduce mortality associated with endotoxic shock). Around day 35 the mice begin to show signs of paw inflammation and disease. Before starting treatment mice were randomized, grouped, scored, ear tagged and pre-bled to determine baseline disease. […] Arthritis clinical scores were the same as that used to score the CAIA model (see CAIA methods). Vehicle consisted of PEG400 plus 1% DMSO given orally, twice daily (b.i.d). […] All samples were kept at −80° C. until ready to assay. At about day 60 mice were harvested for spleen, plasma and arthritic paws for STAT and cytokine quantitation and histological analysis.

[3] = biological target: Src kinase (Homo sapiens, UniProt P12931); test: Kinase profiling panel, Src; assay type: binding; conditions: 1 μM
Description: (§1) The ability of Compound A to inhibit other members of the kinome was also assessed using binding assays for a panel of 402 kinases [25].

[4] = biological target: EGFR (Homo sapiens, UniProt P00533); test: Kinase profiling panel, EGFR; assay type: binding; conditions: 1 μM
Description: as §1

[5] = CIA, 30, 55 and 100 mg/kg b.i.d. p.o.

Sequence of EGFR (P00533 25-1210, species assumed): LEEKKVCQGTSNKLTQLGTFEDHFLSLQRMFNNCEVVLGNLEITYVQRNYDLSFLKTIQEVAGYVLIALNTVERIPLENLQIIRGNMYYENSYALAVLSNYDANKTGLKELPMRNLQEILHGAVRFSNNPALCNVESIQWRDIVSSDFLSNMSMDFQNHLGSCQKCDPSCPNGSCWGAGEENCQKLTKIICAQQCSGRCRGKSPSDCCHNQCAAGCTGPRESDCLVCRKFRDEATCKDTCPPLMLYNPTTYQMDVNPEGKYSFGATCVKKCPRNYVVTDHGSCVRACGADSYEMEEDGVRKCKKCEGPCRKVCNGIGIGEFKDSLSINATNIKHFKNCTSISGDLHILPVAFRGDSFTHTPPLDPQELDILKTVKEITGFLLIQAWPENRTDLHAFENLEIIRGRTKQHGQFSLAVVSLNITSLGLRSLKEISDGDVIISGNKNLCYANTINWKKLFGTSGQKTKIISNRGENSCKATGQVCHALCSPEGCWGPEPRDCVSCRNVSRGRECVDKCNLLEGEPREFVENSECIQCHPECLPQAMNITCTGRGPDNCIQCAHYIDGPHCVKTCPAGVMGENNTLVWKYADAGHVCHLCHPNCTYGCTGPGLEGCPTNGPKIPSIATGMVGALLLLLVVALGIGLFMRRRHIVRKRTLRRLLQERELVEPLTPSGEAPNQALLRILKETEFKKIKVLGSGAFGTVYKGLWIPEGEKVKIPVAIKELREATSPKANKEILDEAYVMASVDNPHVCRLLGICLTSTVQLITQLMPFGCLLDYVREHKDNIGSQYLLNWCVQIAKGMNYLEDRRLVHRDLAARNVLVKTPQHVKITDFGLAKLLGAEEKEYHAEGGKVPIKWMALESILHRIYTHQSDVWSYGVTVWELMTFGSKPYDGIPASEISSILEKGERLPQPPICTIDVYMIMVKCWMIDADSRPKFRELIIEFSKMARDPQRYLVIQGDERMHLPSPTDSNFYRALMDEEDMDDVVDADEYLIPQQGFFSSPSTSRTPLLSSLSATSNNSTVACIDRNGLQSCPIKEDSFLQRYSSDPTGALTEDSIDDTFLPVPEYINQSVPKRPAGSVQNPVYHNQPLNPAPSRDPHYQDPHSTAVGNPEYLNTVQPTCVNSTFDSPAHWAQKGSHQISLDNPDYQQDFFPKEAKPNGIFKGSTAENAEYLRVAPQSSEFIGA
Sequence of Src kinase (P12931 whole entry): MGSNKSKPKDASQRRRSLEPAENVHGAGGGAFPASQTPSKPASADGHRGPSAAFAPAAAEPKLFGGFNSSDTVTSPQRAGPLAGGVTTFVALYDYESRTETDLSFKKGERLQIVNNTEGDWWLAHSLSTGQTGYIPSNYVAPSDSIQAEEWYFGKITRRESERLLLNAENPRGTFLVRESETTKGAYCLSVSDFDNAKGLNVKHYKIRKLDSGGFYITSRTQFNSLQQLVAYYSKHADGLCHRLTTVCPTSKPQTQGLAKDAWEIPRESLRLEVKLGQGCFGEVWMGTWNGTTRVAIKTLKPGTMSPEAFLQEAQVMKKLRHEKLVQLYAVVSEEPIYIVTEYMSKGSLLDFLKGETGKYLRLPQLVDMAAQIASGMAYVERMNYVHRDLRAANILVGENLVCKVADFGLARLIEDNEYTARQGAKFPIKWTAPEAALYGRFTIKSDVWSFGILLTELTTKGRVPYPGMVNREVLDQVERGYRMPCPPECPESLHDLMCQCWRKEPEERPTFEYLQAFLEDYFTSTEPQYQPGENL
Sequence of human JAK2 (O60674 whole entry): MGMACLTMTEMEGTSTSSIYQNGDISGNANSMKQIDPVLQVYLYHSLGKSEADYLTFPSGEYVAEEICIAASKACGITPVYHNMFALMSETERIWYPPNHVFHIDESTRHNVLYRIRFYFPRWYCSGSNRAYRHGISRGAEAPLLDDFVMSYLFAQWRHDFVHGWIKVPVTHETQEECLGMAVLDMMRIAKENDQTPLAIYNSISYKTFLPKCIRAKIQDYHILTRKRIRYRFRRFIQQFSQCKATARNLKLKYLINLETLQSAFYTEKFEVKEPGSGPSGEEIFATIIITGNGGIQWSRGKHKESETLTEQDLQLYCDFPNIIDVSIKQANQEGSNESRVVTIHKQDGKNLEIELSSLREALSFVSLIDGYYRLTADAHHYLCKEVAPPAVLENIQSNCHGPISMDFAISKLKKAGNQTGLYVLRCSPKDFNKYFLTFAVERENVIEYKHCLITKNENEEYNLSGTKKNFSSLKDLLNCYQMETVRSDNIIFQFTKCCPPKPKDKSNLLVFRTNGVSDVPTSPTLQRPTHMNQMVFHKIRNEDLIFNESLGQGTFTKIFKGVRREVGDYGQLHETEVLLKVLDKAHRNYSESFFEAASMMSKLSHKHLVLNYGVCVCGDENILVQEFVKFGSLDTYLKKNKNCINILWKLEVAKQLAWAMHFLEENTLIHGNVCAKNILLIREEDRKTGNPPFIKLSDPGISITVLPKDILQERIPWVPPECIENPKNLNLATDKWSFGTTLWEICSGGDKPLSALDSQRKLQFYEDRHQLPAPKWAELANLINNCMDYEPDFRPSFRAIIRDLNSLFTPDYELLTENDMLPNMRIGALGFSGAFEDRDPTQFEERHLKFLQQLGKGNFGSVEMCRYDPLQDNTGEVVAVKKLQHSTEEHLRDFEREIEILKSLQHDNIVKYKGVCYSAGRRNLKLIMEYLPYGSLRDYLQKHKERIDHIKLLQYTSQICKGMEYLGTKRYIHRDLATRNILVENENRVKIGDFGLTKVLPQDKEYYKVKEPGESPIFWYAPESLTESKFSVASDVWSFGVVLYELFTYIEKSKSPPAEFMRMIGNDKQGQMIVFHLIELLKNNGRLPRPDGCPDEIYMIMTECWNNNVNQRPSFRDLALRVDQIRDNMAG

IC50 [1]: 1.8 ± 0.6 nM | activity against Src in profiling panel [3]: lacked activity | activity against EGFR in profiling panel [4]: lacked activity
Structure (SMILES): CN1CCN(c2cccc(Nc3nc4c(-c5ccc(S(C)(=O)=O)cc5)cccn4n3)c2)CC1 [Compound A, [8-(4-Methanesulfonyl-phenyl)-[1,2,4]triazolo[1,5-a]pyridin-2-yl]-[3-(4-methyl-piperazin-1-yl)-phenyl]-amine]
suppression of paw swelling versus Dex ([2]; CIA, 100 mg/kg): near identical suppression of paw swelling | onset of swelling reduction versus Dex ([2]; CIA, 100 mg/kg, day 43): more rapid drop in swelling as compared to the Dex treatment group | clinical score [2, 5]: reduction in clinical score in a dose-dependent manner | mean paw size [2, 5]: clear reduction in the mean paw size
